Reference: patent publication US7468380B2, “Nitrogen-containing aromatic derivatives” (Eisai R&D Management Co., Ltd., priority 2002, dated 2008)

Test system: VEGF high-expressing pancreatic cancer cells (KP-1/VEGF)
Assay: Antitumor activity on KP-1/VEGF cells in subcutaneous xenograft models
Format: in vivo, mouse
Conditions: 60 mg/kg/day, oral twice a day, 2 weeks, Balb/c (nu/nu) mice
Procedure: VEGF high-expressing pancreatic cancer cells (KP-1/VEGF) suspended in PBS at a concentration of 1×10^7 cells/ml were transplanted under the right flank skin of 6-week-old female Balb/c (nu/nu) mice in a volume of 0.1 ml. When the tumor volume reached approximately 100 mm^3, the test substance was orally administered twice a day over a period of 2 weeks with a schedule of 5 days per week. The test substance was suspended in 0.5% methyl cellulose for an administered volume of 0.1 ml/10 g body weight. The tumor size was measured twice a week using a micrometer caliper. The tumor volume was determined by measuring the long and short diameters of the tumor with a micrometer caliper, and calculating ½×(long diameter×short diameter×short diameter). The experiment was conducted using 10 mice in the control (solvent-administered) group and 5 mice in each test substance-administered group.

CNC(=O)n1ccc2cc(Oc3ccnc(NC(=O)N4CCC(N5CCCC5)CC4)c3)ccc21 [Example 46, N1-Methyl-5-(2-(((4-(pyrrolidin-1-yl)piperidin-1-yl)carbonyl)amino)pyridin-4-yloxy)-1H-1-indolecarboxamide]
proportion of the tumor volume to that of control: 60.0%
